Assay results reported in article PMC9436915, “Tetrahedral framework nucleic acids‐based delivery promotes intracellular transfer of healing peptides and accelerates diabetic would healing” (Cell Proliferation, 2022).
Where a SMILES comes first, the peptide text is derived from it.

Tests used:
[1] = system: trypsin; assay: Enzyme stability of peptide with trypsin; assay type: in vitro ADME; conditions: 37 °C, during 1.5 h, UV 205 nm
Procedure: As to the enzyme stability of peptide, equal amount of peptide and p@FNA were treated with trypsin and incubated in 37 °C for 1.5, 3, and 6 h. The remaining amount of peptide was measured by UV spectrophotometer (205 nm). As to enzyme stability of tFNA, equal amount of tFNA and p@FNA were treated with DNase I for 1 min. After neutralization, samples were examined by 6%PAGE at 60 V for 80 min.

[2] = system: HUVEC; assay: Tube formation assay on Matrigel; assay type: cell-based; conditions: inhibitor+p@tFNA group; n = 3
Procedure: (§1) HUVECs under diabetic microenvironment were induced by incubation with 200 μg/ml AGEs (Bioss, Beijing, China) for 24 h. Cells were then treated with peptides or p@FNA (125 nM) for subsequent experiments.
The formation of blood vessel‐like structures in vitro was observed by tube formation assay. Cells were pre‐incubated with AGEs for 24 h and subsequently treated with peptide or p@FNA for another 24 h. Subsequently, 100 μl of HUVEC (1–1.5 × 10^5 cells/ml) were seeded on Matrigel (Corning, NY) in 96‐well plates. Images were taken after 6 h. Statistical analysis of tube formation was performed by Image J.

[3] = system: p-ERK1/2; assay: Western blotting, ERK1/2 phosphorylation; assay type: cell-based; conditions: inhibitor plus p@tFNA treatment, n = 3
Procedure: as §1
(§2) The expression of β‐actin, VEGFA, MMP‐9, ERK1/2 and p‐ERK1/2 was detected by western blotting. The total protein of the sample was extracted by whole cell lysis method. The target protein was separated by 10% SDS‐PAGE and transferred to PVDF membrane. The bands were blocked in 5% BSA for 1 h and then incubated with primary antibodies against β‐actin (1:5000, PMK058S, BioPM, Wuhan, China), VEGFA (ab214424, Abcam, Cambridge, UK), MMP‐9 (ab76003, Abcam, Cambridge, UK), ERK1/2 (1:1000, CST, #4370, MA) and p‐ERK1/2 (1:2000, CST, #4370, MA) overnight at 4°C. The next day, PVDF membranes were rewarmed and incubated with secondary antibodies for 1 h. Bands were washed three times with TBST. The final exposure was performed in a Bio‐Rad chemiluminometry.

[4] = system: VEGFA; assay: Western blotting, VEGFA protein; assay type: cell-based; conditions: inhibitor plus p@tFNA treatment, n = 3
Procedure: as §1, §2

| SMILES | Stability to trypsin (in words) [1] | Tube formation after ERK1/2 inhibition: branching intervals [2] | Tube formation after ERK1/2 inhibition: branching length [2] | Tube formation after ERK1/2 inhibition: junctions [2] | Tube formation after ERK1/2 inhibition: meshes [2] | Tube formation after ERK1/2 inhibition: nodes [2] | Tube formation after ERK1/2 inhibition: total length [2] | Tube formation after ERK1/2 inhibition: total mesh area [2] | p-ERK1/2 expression after ERK1/2 inhibitor [3] | VEGFA expression after ERK1/2 inhibitor [4] |
| --- | --- | --- | --- | --- | --- | --- | --- | --- | --- | --- |
| C[C@@H](O)[C@H](NC(=O)[C@H](CCCNC(=N)N)NC(=O)CNC(=O)[C@H](CCC(=O)O)NC(=O)[C@@H](N)CCCNC(=N)N)C(=O)O [peptide] (H-REGRT-OH) | rapid decomposition | – | – | – | – | – | – | – | – | – |
| Cn1nccc1Nc1nccc(-c2cc3c(s2)C(C)(C)N(CCN2CCOCC2)C3=O)n1 [LY3214996] | – | 0.49 fold | 0.25 fold | 0.19 fold | 0.13 fold | 0.20 fold | 0.35 fold | 0.02 fold | 0.69 fold | 0.59 fold |
